Experimental data as given in US7473694B2, “Pyrazolopyrimidine derivatives or pharmaceutically acceptable salts thereof” (Teijin Pharma Limited, priority 2005, dated 2009).

target: recombinant human MAPKAP-K2 (Homo sapiens, UniProt P49137); assay: Inhibition of MAPKAP-K2 enzyme activity (33P-ATP peptide substrate phosphorylation); type: biochemical; details: recombinant human MAPKAP-K2 10 mU, room temperature 30 min, peptide substrate Lys-Lys-Leu-Asn-Arg-Thr-Leu-Ser-Val-Ala; read-out: Activity strength (IC50 against MAPKAP-K2)
Procedure: General Measurement Method for Determining Inhibition of MAPKAP-K2 Enzyme Activity
(Preparation of Solutions of Compounds)
Each compound was dissolved to DMSO to prepare a solution with a concentration of 20 mmol/L and this solution was stored at −20° C. This stock solution was diluted with DMSO successively to prepare solutions with 200-fold concentrations of a necessary range. These solutions were further diluted with water at a ratio of 1:20 to prepare solutions with 10-fold concentrations of a necessary range. Each of these solutions (5 μL) was used for each reaction in 50 μL-scale. Through the dilution series of all compounds, the final DMSO concentration was kept at 0.5%. Conventional tests for the compounds were carried out at a final concentration ranging from 100 μmol/L to 0.03 μmol/L, but in some cases, tests were carried out at lower concentrations, depending on activity.
(Measurements of MAPKAP-K2 Enzyme Activity)
To a DMSO solution (5 μL) containing a test compound at 5%, a solution (25 μL) containing a peptide substrate [peptide substrate […], ATP 20 μmol/L, Tris buffer 60 mmol/L (pH 7.5), EGTA 0.2 mmol/L, β-mercaptoethanol 0.2%, magnesium acetate 20 mmol/L, [γ-33P]ATP 0.1 μCi (specific radioactivity ca. 110 TBq/mmol)] was added. The reaction was initiated by further adding a solution (20 μL) containing MAPKAP-K2 enzyme [recombinant human MAPKAP-K2 10 mU, Tris buffer 50 mmol/L (pH 7.5), EGTA 0.1 mmol/L, β-mercaptoethanol 0.1%, BSA 0.1%]. After the reaction was carried out at room temperature for 30 min, 200 mmol/L phosphoric acid (50 μL) was added to quench the reaction, and 90 μL of the reaction mixture was adsorbed on a multiscreen PH plate (Millipore). The plate was washed with 100 mmol/L phosphoric acid. After the plate was dried, 30 μL of MicroScint™-O (Perkin-Elmer) was added here, and the radioactivity (cpm) was measured on a scintillation counter to determine the inhibitory activity. The peptide substrate was Lys-Lys-Leu-Asn-Arg-Thr-Leu-Ser-Val-Ala.
(Note) % Reference=(X−B)/(Tot−B)×100 % Inhibition=100%−% Reference • X=count per minute of the well with a test compound • B=count per minute of the well without the enzyme • Tot=count per minute of the well with only DMSO solvent and without a test compound (Calculation of MAPKAP-K2 Inhibitory Activity) • IC50 value=a concentration of compound at which 50% inhibition is observed • The efficacy of each compound in Tables A to G against MAPKAP-K2 is listed in the following Table J.

recombinant human MAPKAP-K2, sequence (P49137 whole entry): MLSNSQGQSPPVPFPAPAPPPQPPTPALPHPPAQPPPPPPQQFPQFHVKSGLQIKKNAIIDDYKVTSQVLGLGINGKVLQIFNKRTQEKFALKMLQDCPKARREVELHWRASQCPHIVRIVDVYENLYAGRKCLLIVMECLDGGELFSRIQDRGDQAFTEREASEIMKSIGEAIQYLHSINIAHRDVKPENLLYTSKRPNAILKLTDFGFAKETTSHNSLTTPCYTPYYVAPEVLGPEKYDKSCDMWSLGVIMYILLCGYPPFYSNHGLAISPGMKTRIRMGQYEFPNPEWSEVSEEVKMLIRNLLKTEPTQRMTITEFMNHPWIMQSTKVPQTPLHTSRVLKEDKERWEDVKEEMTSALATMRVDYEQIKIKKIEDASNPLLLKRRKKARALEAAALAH

SMILES | IC50
CCOc1ccc(Nc2c3c(nc4ccnn24)N([C@@H]2CCCC[C@@H]2N)CCC3)cc1 [B-003] | 10 to 50 µM
CCOc1ccc(Nc2c3c(nc4ccnn24)N([C@H]2CCCNC2)CCC3)cc1 [B-001] | < 10 µM
CCOc1ccc(Nc2c3c(nc4ccnn24)N(C2CCCNC2)CCC3)cc1 (stereo not shown) [B-014] | < 10 µM
CCOc1ccc(Nc2c3c(nc4ccnn24)N([C@H]2CCCNC2)CCCC3)cc1 [C-001, (S)-(4-ethoxyphenyl)(5-piperidin-3-yl-6,7,8,9-tetrahydro-5H-1,4,5,10a-tetraazacyclohepta[f]inden-10-yl)amine] | < 10 µM
CC(C)(C)CNc1c2c(nc3ccnn13)N([C@H]1CCCNC1)CC2 [A-026] | < 10 µM
CCOc1ccc(Nc2c3c(nc4ccnn24)N([C@H]2CCCNC2)CC=CC3)cc1 [G-001, (S)-(4-ethoxyphenyl)(5-piperidin-3-yl-6,9-dihydro-5H-1,4,5,10a-tetraazacyclohepta[f]inden-10-yl)amine] | < 10 µM
CCOc1ccc(Nc2c3c(nc4ccnn24)N(C2CCNC2)CC3)cc1 (stereo not shown) [A-013] | < 10 µM
CCOc1ccc(Nc2c3c(nc4ccnn24)N([C@H]2CC[C@H](N)CC2)CC3)cc1 [A-002] | < 10 µM
CCOc1ccc(Nc2c3c(nc4ccnn24)N(CCCN)CC3)cc1 [A-006] | < 10 µM
CCOc1ccc(Nc2c3c(nc4ccnn24)N([C@H]2CC[C@H](N)CC2)CCC3)cc1 [B-002, [5-(4-aminocyclohexyl)-5,6,7,8-tetrahydro-1,4,5,9a-tetraazacyclopenta[b]naphthalen-9-yl](4-ethoxyphenyl)amine] | < 10 µM
c1cc2nc3c(c(NC4CCCC4)n2n1)CCN3[C@H]1CCCNC1 [A-027] | < 10 µM
CCOc1ccc(Nc2c3c(nc4ccnn24)N(CCN(C)C)CCC3)cc1 [B-007] | 50 to 100 µM
CCOc1ccc(Nc2c3c(nc4ccnn24)N(CCCN)CCC3)cc1 [B-015] | 10 to 50 µM
c1cc2nc3c(c(Nc4ccc5sccc5c4)n2n1)CCN3[C@H]1CCCNC1 [A-100] | < 10 µM
Nc1c2c(nc3ccnn13)N([C@H]1CCCNC1)CC2 [A-092, (S)-5-piperidin-3-yl-6,7-dihydro-5H-1,4,5,8a-tetraaza-s-indacen-8-ylamine] | < 10 µM
CCOc1ccc(Nc2c3c(nc4ccnn24)N(Cc2cccnc2)CCC3)cc1 [B-018] | 50 to 100 µM
c1coc(Nc2c3c(nc4ccnn24)N([C@H]2CCCNC2)CC3)c1 [A-095, (S)-furan-2-yl-(5-piperidin-3-yl-6,7-dihydro-5H-1,4,5,8a-tetraaza-s-indacen-8-yl)amine] | < 10 µM
CCOc1ccc(Nc2c3c(nc4ccnn24)N(C2CCNC2)CCC3)cc1 (stereo not shown) [B-021] | < 10 µM
CCOc1ccc(Nc2c3c(nc4ccnn24)N([C@H]2CCCNC2)CC3)cc1 [A-008, (S)-(4-ethoxyphenyl)(5-piperidin-3-yl-6,7-dihydro-5H-1,4,5,8a-tetraaza-s-indacen-8-yl)amine] | < 10 µM
c1cc2nc3c(c(Nc4ccc5cn[nH]c5c4)n2n1)CCN3[C@H]1CCCNC1 [A-058] | < 10 µM
FC(F)(F)c1nc2cc(Nc3c4c(nc5ccnn35)N([C@H]3CCCNC3)CC4)ccc2[nH]1 [A-091] | < 10 µM
CCOc1ccc(Nc2c3cc(CO)n([C@H]4CCCNC4)c3nc3ccnn23)cc1 [F-002] | 10 to 50 µM
CCOc1ccc(Nc2c3c(nc4ccnn24)N(C2CCCC(N)C2)CC3)cc1 (stereo not shown) [A-003] | 10 to 50 µM
CCOc1ccc(Nc2c3c(nc4ccnn24)N(CCN)C(=O)C3)cc1 [D-003] | 50 to 100 µM
CCOc1ccc(Nc2c3c(nc4ccnn24)N([C@H]2CCCC[C@@H]2N)CC3)cc1 [A-004] | 50 to 100 µM

SMILES | IC50
c1ccc(CNc2c3c(nc4ccnn24)N([C@H]2CCCNC2)CC3)cc1 [A-025] | < 10 µM
CCOc1ccc(Nc2c3c(nc4ccnn24)N(C2CCN(Cc4ccccc4)C2)CC3)cc1 (stereo not shown) [A-010] | 10 to 50 µM
CCOc1ccc(Nc2c3c(nc4ccnn24)N(C2CCCC(N)C2)CCC3)cc1 (stereo not shown) [B-013] | 50 to 100 µM
CCOc1ccc(Nc2c3ccn([C@H]4CCCNC4)c3nc3ccnn23)cc1 [F-001, (S)-(4-ethoxyphenyl)(5-piperidin-3-yl-5H-14,5,8a-tetraaza-s-indacen-8-yl)amine] | < 10 µM
CCOc1ccc(Nc2c3c(nc4ccnn24)N(C[C@H]2CCCNC2)C(=O)C3)cc1 [D-002] | 50 to 100 µM
CCOc1ccc(Nc2c3c(nc4ccnn24)N(C2CCNCC2)CC3)cc1 [A-009] | < 10 µM
CCOc1ccc(Nc2c3c(nc4ccnn24)N([C@H]2CC[C@H](N)CC2)C(=O)C3)cc1 [D-006] | 10 to 50 µM
COC(=O)c1ccc(Nc2c3c(nc4ccnn24)N(C2CCCNC2)CC3)cc1 (stereo not shown) [A-099] | < 10 µM
Cc1nc2ccc(Nc3c4c(nc5ccnn35)N([C@H]3CCCNC3)CC4)cc2s1 [A-022, (S)-(2-methylbenzothiazol-6-yl)(5-piperidin-3-yl-6,7-dihydro-5H-1,4,5,8a-tetraaza-s-indacen-8-yl)amine] | < 10 µM
CCOc1ccc(Nc2c3c(nc4c(F)cnn24)N([C@H]2CCCNC2)CC3)cc1 [A-018, (S)-(4-Ethoxyphenyl)(3-fluoro-5-piperidin-3-yl-6,7-dihydro-5H-1,4,5,8a-tetraaza-s-indacen-8-yl)amine] | < 10 µM
CCOc1ccc(Nc2c3c(nc4ccnn24)N([C@H]2CCCNC2)C(CO)C3)cc1 (stereo partly drawn) [A-024, (S)-{8-(4-ethoxyphenylamino)-5-piperidin-3-yl-6,7-dihydro-5H-1,4,5,8a-tetraaza-s-indacen-6-yl]methanol] | < 10 µM
CCOc1ccc(Nc2c3c(nc4ccnn24)N(CC(C)(C)CN)CC3)cc1 [A-007] | 50 to 100 µM
c1ccc(Nc2c3c(nc4ccnn24)N([C@H]2CCCNC2)CC3)cc1 [A-032] | < 10 µM
CCOc1ccc(Nc2c3c(nc4ccnn24)N([C@H]2CCCNC2)C(=O)C3)cc1 [D-001] | 10 to 50 µM
CCOc1ccc(Nc2c3c(nc4ccnn24)N(C2CCN(CC)C2)CC3)cc1 (stereo not shown) [A-012] | 10 to 50 µM
CCOc1ccc(Nc2c3c(nc4ccnn24)N(O)CC3)cc1 [A-020, 8-(4-ethoxyphenylamino)-6,7-dihydro-1,4,5,8a-tetraaza-s-indacen-5-ol] | < 10 µM
CCOc1ccc(Nc2c3c(nc4ccnn24)N(CC2CCCNC2)CC3)cc1 (stereo not shown) [A-014] | 50 to 100 µM
COCCOc1ccc(Nc2c3c(nc4ccnn24)N([C@H]2CCCNC2)CC3)cc1 [A-023, (S)-[4-(2-methoxyethoxy)phenyl](5-piperidin-3-yl-6,7-dihydro-5H-1,4,5,8a-tetraaza-s-indacen-8-yl)amine] | < 10 µM
CCOc1ccc(Nc2c3c(nc4ccnn24)N(C2CCN(Cc4ccccc4)C2)CCC3)cc1 (stereo not shown) [B-016] | 10 to 50 µM
CCOc1ccc(Nc2c3c(nc4ccnn24)N(CCN)CC3)cc1 [A-005] | < 10 µM
CNc1c2c(nc3ccnn13)N([C@H]1CCCNC1)CC2 [A-096] | < 10 µM
CCOc1ccc(Nc2c3c(nc4ccnn24)N(C2CCN(CC)C2)CCC3)cc1 (stereo not shown) [B-022] | 10 to 50 µM
CCOc1ccc(Nc2c3c(nc4ccnn24)N(C2CCNCC2)CCC3)cc1 [B-017] | < 10 µM
CCOc1ccc(Nc2c3c(nc4c(F)c(F)nn24)N([C@H]2CCCNC2)CC3)cc1 [A-019, (S)-(2,3-Difluoro-5-piperidin-3-yl-6,7-dihydro-5H-1,4,5,8a-tetraaza-s-indacen-8-yl)(4-ethoxyphenyl)amine] | 10 to 50 µM
